Experimental data: patent US20110082130A1 (LIGAND PHARMACEUTICALS, INC., priority 2006, published 2011)
pKi: −log10 of the molar value.

Target: T1, chimeric human H3 receptor (Homo sapiens, UniProt Q9Y5N1)
T1 construct: made in house; host or cells: Sf9 insect cells (baculovirus); P2 membrane preparation
Test: Chimeric human H3 receptor GTP binding assay (agonist-stimulated GTP-gamma35S binding, Example 7)
Assay type: biochemical
Conditions: Table I; P2 membranes of Sf9 cells, 1 μM histamine as agonist, Ki from IC50 by Cheng-Prusoff
Summary of the method: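 Sf9 membranes co-expressing chimeric human H3 receptor and heterotrimeric G-protein, 35 μg/tube, in pH 7.4 Tris buffer with 10 μM GDP. Test compounds (10^−10–10^−6 M) competed against 1 μM histamine, […] GTP-gamma35S, 60 min at room temperature. Filter-bound radioactivity counted; IC50 converted to Ki by Cheng-Prusoff. Agonism/inverse agonism tested without histamine (EC50).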

T1 sequence (Q9Y5N1 with tags, fused parts or gaps): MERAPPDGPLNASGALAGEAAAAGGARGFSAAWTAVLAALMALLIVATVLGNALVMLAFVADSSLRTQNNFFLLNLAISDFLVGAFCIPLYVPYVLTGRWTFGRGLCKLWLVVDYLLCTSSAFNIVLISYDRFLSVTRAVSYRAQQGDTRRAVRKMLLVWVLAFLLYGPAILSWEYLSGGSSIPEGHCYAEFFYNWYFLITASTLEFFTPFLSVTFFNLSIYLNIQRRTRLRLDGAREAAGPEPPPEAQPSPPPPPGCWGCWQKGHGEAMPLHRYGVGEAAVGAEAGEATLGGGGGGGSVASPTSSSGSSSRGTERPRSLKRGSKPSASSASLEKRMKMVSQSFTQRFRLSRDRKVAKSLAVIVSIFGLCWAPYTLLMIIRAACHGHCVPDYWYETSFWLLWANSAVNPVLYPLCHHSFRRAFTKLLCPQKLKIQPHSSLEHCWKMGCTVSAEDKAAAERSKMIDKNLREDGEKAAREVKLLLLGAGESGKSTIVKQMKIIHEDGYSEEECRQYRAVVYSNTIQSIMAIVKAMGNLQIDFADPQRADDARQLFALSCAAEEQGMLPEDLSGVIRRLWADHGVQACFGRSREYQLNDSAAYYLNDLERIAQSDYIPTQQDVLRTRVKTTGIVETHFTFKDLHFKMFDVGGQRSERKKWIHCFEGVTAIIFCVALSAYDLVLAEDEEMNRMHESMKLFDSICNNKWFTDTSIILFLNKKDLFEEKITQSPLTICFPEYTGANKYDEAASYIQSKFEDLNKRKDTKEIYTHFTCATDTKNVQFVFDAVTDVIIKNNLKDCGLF

SMILES | pKi
Cc1noc(C)c1-c1ccc2c(c1)CCN(CC(=O)N1CCN(C3CCC3)CC1)C2 [Compound 68, 2-[2-(4-cyclobutylpiperazin-1-yl)-2-oxoethyl]-6-(3,5-dimethylisoxazol-4-yl)-1,2,3,4-tetrahydroisoquinoline] | > 6.00
CC(=O)c1ccc(-c2cnc3n2CCN(CC(=O)N2CCN(C4CCC4)CC2)C3)cc1 [Compound 82, 1-(4-{7-[2-(4-cyclobutylpiperazin-1-yl)-2-oxoethyl]-5,6,7,8-tetrahydroimidazo[1,2-a]pyrazin-3-yl}phenyl)ethanone] | > 6.00

Same assay, conditions: Table II "Ki", symbol *; assay of Example 7

SMILES | pKi
O=C1CCCN1CCCNc1ccc2c(n1)CCN(CC(=O)N1CCN(C3CCC3)CC1)C2 [Compound 653, 1-[3-({6-[2-(4-cyclobutylpiperazin-1-yl)-2-oxoethyl]-5,6,7,8-tetrahydro-1,6-naphthyridin-2-yl}amino)propyl] pyrrolidin-2-one] | > 6.00
COCC1CCN(c2ccc3c(n2)CCN(CC(=O)N2CCN(C4CCC4)CC2)C3)CC1 [Compound 673, 6-[2-(4-cyclobutylpiperazin-1-yl)-2-oxoethyl]-2-[4-(methoxymethyl)piperidin-1-yl]-5,6,7,8-tetrahydro-1,6-naphthyridine] | > 6.00
CC1CCCCC1N1CCN(C(=O)CN2CCc3cc(-c4cncnc4)ccc3C2)CC1 (stereo not shown) [Compound 619, 2-{2-[4-(2-methylcyclohexyl)piperazin-1-yl]-2-oxoethyl}-6-pyrimidin-5-yl-1,2,3,4-tetrahydroisoquinoline] | > 6.00
CCOc1ccc(-c2ccc3c(c2)CCN(CC(=O)N2CCN(C4CCCC4)CC2)C3)cc1 [Compound 529, 2-[2-(4-cyclopentylpiperazin-1-yl)-2-oxoethyl]-6-(4-ethoxyphenyl)-1,2,3,4-tetrahydroisoquinoline] | > 6.00
CCOCCNc1ccc2c(n1)CCN(CC(=O)N1CCN(C3CCC3)CC1)C2 [Compound 667, 6-[2-(4-cyclobutylpiperazin-1-yl)-2-oxoethyl]-N-(2-ethoxyethyl)-5,6,7,8-tetrahydro-1,6-naphthyridin-2-amine] | > 6.00
CC(C)CCNc1ccc2c(n1)CCN(CC(=O)N1CCN(C3CCC3)CC1)C2 [Compound 652, 6-[2-(4-cyclobutylpiperazin-1-yl)-2-oxoethyl]-N-(3-methylbutyl)-5,6,7,8-tetrahydro-1,6-naphthyridin-2-amine] | > 6.00
CC(C)CNc1ccc2c(n1)CCN(CC(=O)N1CCN(C3CCC3)CC1)C2 [Compound 651, 6-[2-(4-cyclobutylpiperazin-1-yl)-2-oxoethyl]-N-isobutyl-5,6,7,8-tetrahydro-1,6-naphthyridin-2-amine] | > 6.00
CC(C)c1ccc(-c2ccc3c(c2)CCN(CC(=O)N2CCN(C4CCC4)CC2)C3)nc1 [Compound 647, 2-[2-(4-cyclobutylpiperazin-1-yl)-2-oxoethyl]-6-(5-isopropylpyridin-2-yl)-1,2,3,4-tetrahydroisoquinoline] | > 6.00

Same assay, conditions: Table II; "*" = Ki in assay of Example 7 less than 1 micromolar

SMILES | pKi
Cn1cc(-c2ccc3c(c2)CCN(CC(=O)N2CCN(C4CCC4)CC2)C3)cn1 [Compound 127, 2-[2-(4-cyclobutylpiperazin-1-yl)-2-oxoethyl]-6-(1-methyl-1H-pyrazol-4-yl)1,2,3,4-tetrahydroisoquinoline] | > 6.00
O=C(CN1CCc2cc(N3CCCCC3=O)ccc2C1)N1CCN(C2CCC2)CC1 [Compound 211, 1-{2-[2-(4-cyclobutylpiperazin-1-yl)-2-oxoethyl]-1,2,3,4-tetrahydroisoquinolin-6-yl}piperidin-2-one] | > 6.00
O=C(CN1CCc2cc(-c3cnccn3)ccc2C1)N1CCN(C2CCC2)CC1 [Compound 128, 2-[2-(4-cyclobutylpiperazin-1-yl)-2-oxoethyl]-6-pyrazin-2-yl-1,2,3,4-tetrahydroisoquinoline] | > 6.00
O=C(CN1CCc2cc(-n3ncc4ccccc43)ccc2C1)N1CCN(C2CCC2)CC1 [Compound 230, 2-[2-(4-cyclobutylpiperazin-1-yl)-2-oxoethyl]-6-(1H-indazol-1-yl)-1,2,3,4-tetrahydroisoquinoline] | > 6.00
O=C(CN1CCc2nc(Br)sc2C1)N1CCN(C2CCC2)CC1 [Compound 97, 2-bromo-5-[2-(4-cyclobutylpiperazin-1-yl)-2-oxoethyl]-4,5,6,7-tetrahydro[1,3]thiazolo [5,4-c]pyridine] | > 6.00
CS(=O)(=O)c1cccc(-c2ccc3c(c2)CCN(CC(=O)N2CCN(C4CCC4)CC2)C3)c1 [Compound 84, 2-[2-(4-cyclobutylpiperazin-1-yl)-2-oxoethyl]-6-[3-(methylsulfonyl)phenyl]-1,2,3,4-tetrahydroisoquinoline] | > 6.00
O=C(CN1CCc2nc(N3CCC(F)C3)ccc2C1)N1CCN(C2CCC2)CC1 (stereo not shown) [Compound 225, 6-[2-(4-cyclobutylpiperazin-1-yl)-2-oxoethyl]-2-(3-fluoropyrrolidin-1-yl)-5,6,7,8-tetrahydro-1,6-naphthyridine] | > 6.00
O=C(CN1CCc2cc(-n3cccn3)ccc2C1)N1CCN2CCCCC2C1 (stereo not shown) [Compound 153, 2-{[6-(1H-pyrazol-1-yl)-3,4-dihydroisoquinolin-2(1H)-yl]acetyl}octahydro-2H-pyrido[1,2-a]pyrazine] | > 6.00
O=C(CN1CCc2nc(N3CCCCC3)ncc2C1)N1CCN(C2CCCC2)CC1 [Compound 156, 6-[2-(4-cyclopentylpiperazin-1-yl)-2-oxoethyl]-2-piperidin-1-yl-5,6,7,8-tetrahydropyrido[4,3-d]pyrimidine] | > 6.00
CC(C)[C@@H]1CN(C(=O)CN2CCc3cc(-c4cncnc4)ccc3C2)CCN1C1CCC1 [Compound 189, 2-{2-[(3R)-4-cyclobutyl-3-isopropylpiperazin-1-yl]-2-oxoethyl}-6-pyrimidin-5-yl-1,2,3,4-tetrahydroisoquinoline] | > 6.00
O=C(CN1CCc2cc(-n3cccn3)ccc2C1)N1CCN(C2CCC2)CC1 [Compound 122, 2-[2-(4-cyclobutylpiperazin-1-yl)-2-oxoethyl]-6-(1H-pyrazol-1-yl)-1,2,3,4-tetrahydroisoquinoline] | > 6.00
CC1CCCC1N1CCN(C(=O)CN2CCc3nc(N4CCOCC4)ncc3C2)CC1 (stereo not shown) [Compound 205, 6-{2-[4-(2-methylcyclopentyl)piperazin-1-yl]-2-oxoethyl}-2-morpholin-4-yl-5,6,7,8-tetrahydropyrido[4,3-d]pyrimidine] | > 6.00

Same assay, conditions: assay of Example 7; "*" in Ki of Table II

SMILES | pKi
CC(C)c1ccc(-c2nc3c(s2)CN(CC(=O)N2CCN(C4CCC4)CC2)CC3)cc1 [Compound 307, 5-[2-(4-cyclobutylpiperazin-1-yl)-2-oxoethyl]-2-(4-isopropylphenyl)-4,5,6,7-tetrahydro[1,3]thiazolo [5,4-c]pyridine] | > 6.00
O=C(CN1CCc2c(cnn2-c2cccnn2)C1)N1CCN(C2CCC2)CC1 [Compound 285, 5-[2-(4-cyclobutylpiperazin-1-yl)-2-oxoethyl]-1-pyridazin-3-yl-4,5,6,7-tetrahydro-1H-pyrazolo[4,3-c]pyridine] | > 6.00
CC(C)c1cccc(-c2nc3c(s2)CN(CC(=O)N2CCN(C4CCC4)CC2)CC3)c1 [Compound 306, 5-[2-(4-cyclobutylpiperazin-1-yl)-2-oxoethyl]-2-(3-isopropylphenyl)-4,5,6,7-tetrahydro[1,3]thiazolo [5,4-c]pyridine] | > 6.00
COc1cccc(OC)c1-c1nc2c(s1)CN(CC(=O)N1CCN(C3CCC3)CC1)CC2 [Compound 361, 5-[2-(4-cyclobutylpiperazin-1-yl)-2-oxoethyl]-2-(2,6-dimethoxyphenyl)-4,5,6,7-tetrahydro[1,3]thiazolo [5,4-c]pyridine] | > 6.00
CCc1cccc(-c2nc3c(s2)CN(CC(=O)N2CCN(C4CCC4)CC2)CC3)c1 [Compound 313, 5-[2-(4-cyclobutylpiperazin-1-yl)-2-oxoethyl]-2-(3-ethylphenyl)-4,5,6,7-tetrahydro[1,3]thiazolo [5,4-c]pyridine] | > 6.00
COc1cc(-c2nc3c(s2)CN(CC(=O)N2CCN(C4CCC4)CC2)CC3)cc(OC)c1OC [Compound 326, 5-[2-(4-cyclobutylpiperazin-1-yl)-2-oxoethyl]-2-(3,4,5-trimethoxyphenyl)-4,5,6,7-tetrahydro[1,3]thiazolo [5,4-c]pyridine] | > 6.00
O=C(CN1CCc2nc(-c3ccccc3)sc2C1)N1CCN(C2CCC2)CC1 [Compound 294, 5-[2-(4-cyclobutylpiperazin-1-yl)-2-oxoethyl]-2-phenyl-4,5,6,7-tetrahydro[1,3]thiazolo [5,4-c]pyridine] | > 6.00
COc1cccc(-c2ccc3c(c2)CCN(CC(=O)N2CCN(C4CCC4)CC2)C3)c1 [Compound 475, 2-[2-(4-cyclobutylpiperazin-1-yl)-2-oxoethyl]-6-(3-methoxyphenyl)-1,2,3,4-tetrahydroisoquinoline] | > 6.00
COc1ccc2cc(-c3nc4c(s3)CN(CC(=O)N3CCN(C5CCC5)CC3)CC4)ccc2c1 [Compound 324, 5-[2-(4-cyclobutylpiperazin-1-yl)-2-oxoethyl]-2-(6-methoxy-2-naphthyl)-4,5,6,7-tetrahydro[1,3]thiazolo [5,4-c]pyridine] | > 6.00
CN(C)c1ccc(-c2nc3c(s2)CN(CC(=O)N2CCN(C4CCC4)CC2)CC3)cc1 [Compound 331, 4-{5-[2-(4-cyclobutylpiperazin-1-yl)-2-oxoethyl]-4,5,6,7-tetrahydro[1,3]thiazolo [5,4-c]pyridin-2-yl}-N,N-dimethylaniline] | > 6.00
O=C(CN1CCc2nc(-c3cc(Cl)cc(Cl)c3)sc2C1)N1CCN(C2CCC2)CC1 [Compound 350, 5-[2-(4-cyclobutylpiperazin-1-yl)-2-oxoethyl]-2-(3,5-dichlorophenyl)-4,5,6,7-tetrahydro[1,3]thiazolo [5,4-c]pyridine] | > 6.00
COCc1ncc2c(n1)CCN(CC(=O)N1CCN(C3CCC3)CC1)C2 [Compound 286, 6-[2-(4-cyclobutylpiperazin-1-yl)-2-oxoethyl]-2-(methoxymethyl)-5,6,7,8-tetrahydropyrido[4,3-d]pyrimidine] | > 6.00
